{
  "source": "patent US10772893B2",
  "about": "“2-(morpholin-4-yl)-1,7-naphthyridines” (BAYER PHARMA AKTIENGESELLSCHAFT, priority 2014, dated 2020)",
  "data": [
    {"system": "HeLa cells", "experiment": "Proliferation assay, crystal violet staining", "details": "Homo sapiens, 96 h, read-out: Inhibition of HeLa cell proliferation", "units": {"IC50": "µM"}, "values": [
      {"compound": "COP(=O)(OC)c1ccc(-c2cc(N3CCOCC3)nc3c(-c4ccn[nH]4)nccc23)cc1", "note": "[Example 9, dimethyl {4-[2-(morpholin-4-yl)-8-(1H-pyrazol-5-yl)-1,7-naphthyridin-4-yl]phenyl}phosphonate]", "IC50": 1.01}
    ]},
    {"system": "HeLa cells", "experiment": "Proliferation assay, crystal violet staining", "details": "Homo sapiens, 96 h, read-out: Inhibition of HeLa cell proliferation, HeLa cells, 4 days incubation", "units": {"IC50": "µM"}, "values": [
      {"compound": "C[C@@H]1CN[C@@H](C)CN1c1cc(N2CCOCC2)nc2c(-c3ccn[nH]3)nccc12", "note": "(relative stereo) [Example 178, 4-[(trans)-2,5-dimethylpiperazin-1-yl]-2-(morpholin-4-yl)-8-(1H-pyrazol-5-yl)-1,7-naphthyridine]", "IC50": "> 3"},
      {"compound": "CS(=O)(=O)c1ccc(-c2cc(N3CCOCC3)nc3c(-c4ccn[nH]4)nccc23)cn1", "note": "[Example 3, 4-[6-(methylsulfonyl)pyridin-3-yl]-2-(morpholin-4-yl)-8-(1H-pyrazol-5-yl)-1,7-naphthyridine]", "IC50": 2.77},
      {"compound": "Cc1cc(S(C)(=O)=O)ncc1-c1cc(N2CCOCC2)nc2c(-c3ccn[nH]3)nccc12", "note": "[Example 6, 4-[4-methyl-6-(methylsulfonyl)pyridin-3-yl]-2-(morpholin-4-yl)-8-(1H-pyrazol-5-yl)-1,7-naphthyridine]", "IC50": 1.49},
      {"compound": "CN1CC=C(c2cc(N3CCOCC3)nc3c(-c4ccn[nH]4)nccc23)CC1", "note": "[Example 14, 4-(1-methyl-1,2,3,6-tetrahydropyridin-4-yl)-2-(morpholin-4-yl)-8-(1H-pyrazol-5-yl)-1,7-naphthyridine]", "IC50": 1.99},
      {"compound": "C[C@@H]1COCCN1c1cc(-c2ccccc2)c2ccnc(-c3cc[nH]n3)c2n1", "note": "[Example 27, 2-((R)-3-methylmorpholin-4-yl)-4-phenyl-8-(2H-pyrazol-3-yl)-[1,7]naphthyridine]", "IC50": 0.355},
      {"compound": "C[C@@H]1COCCN1c1cc(-c2cccc(S(C)(=O)=O)c2)c2ccnc(-c3cc[nH]n3)c2n1", "note": "[Example 28, 4-(3-methanesulphonylphenyl)-2-((R)-3-methylmorpholin-4-yl)-8-(2H-pyrazol-3-yl)-[1,7]naphthyridine]", "IC50": 0.316},
      {"compound": "CS(=O)(=O)Cc1cc(N2CCOCC2)nc2c(-c3ccn[nH]3)nccc12", "note": "[Example 37, 4-methanesulphonylmethyl-2-morpholin-4-yl-8-(2H-pyrazol-3-yl)-[1,7]naphthyridine]", "IC50": 5.08},
      {"compound": "CCOc1cc(N2CCOCC2)nc2c(-c3cc[nH]n3)nccc12", "note": "[Example 43, 4-ethoxy-2-(morpholin-4-yl)-8-(1H-pyrazol-3-yl)-[1,7]naphthyridine]", "IC50": 3.88},
      {"compound": "c1ccc(COc2cc(N3CCOCC3)nc3c(-c4cc[nH]n4)nccc23)cc1", "note": "[Example 50, 4-benzyloxy-2-(morpholin-4-yl)-8-(1H-pyrazol-3-yl)-[1,7]naphthyridine]", "IC50": "> 10"},
      {"compound": "COc1cc(N2CCOC[C@H]2C)nc2c(-c3cc[nH]n3)nccc12", "note": "[Example 53, 4-methoxy-2-((R)-3-methylmorpholin-4-yl)-8-(1H-pyrazol-3-yl)-[1,7]naphthyridine]", "IC50": 1.41},
      {"compound": "CCn1nccc1-c1cc(N2CCOC[C@H]2C)nc2c(-c3ccn[nH]3)nccc12", "note": "[Example 69, 4-(1-ethyl-1H-pyrazol-5-yl)-2-[(3R)-3-methylmorpholin-4-yl]-8-(1H-pyrazol-5-yl)-1,7-naphthyridine]", "IC50": 0.191},
      {"compound": "C[C@@H]1COCCN1c1cc(-c2cncn2C)c2ccnc(-c3ccn[nH]3)c2n1", "note": "[Example 70, 4-(1-methyl-1H-imidazol-5-yl)-2-[(3R)-3-methylmorpholin-4-yl]-8-(1H-pyrazol-5-yl)-1,7-naphthyridine]", "IC50": 0.201},
      {"compound": "C[C@@H]1COCCN1c1cc(-c2ccccc2N)c2ccnc(-c3ccn[nH]3)c2n1", "note": "[Example 71, 2-{2-[(3R)-3-methylmorpholin-4-yl]-8-(1H-pyrazol-5-yl)-1,7-naphthyridin-4-yl]aniline]", "IC50": 0.167},
      {"compound": "C[C@@H]1COCCN1c1cc(-c2cccc(F)c2F)c2ccnc(-c3ccn[nH]3)c2n1", "note": "[Example 72, 4-(2,3-difluorophenyl)-2-[(3R)-3-methylmorpholin-4-yl]-8-(1H-pyrazol-5-yl)-1,7-naphthyridine]", "IC50": 0.2},
      {"compound": "C[C@@H]1COCCN1c1cc(-c2cc(F)ccc2N)c2ccnc(-c3ccn[nH]3)c2n1", "note": "[Example 75, 4-fluoro-2-[2-[(3R)-3-methylmorpholin-4-yl]-8-(1H-pyrazol-5-yl)-1,7-naphthyridin-4-yl]aniline]", "IC50": 0.271},
      {"compound": "C[C@@H]1COCCN1c1cc(-c2cncn2Cc2ccccc2)c2ccnc(-c3ccn[nH]3)c2n1", "note": "[Example 76, 4-(1-benzyl-1H-imidazol-5-yl)-2-[(3R)-3-methylmorpholin-4-yl]-8-(1H-pyrazol-5-yl)-1,7-naphthyridine]", "IC50": 0.968},
      {"compound": "C[C@@H]1COCCN1c1cc(-c2ccccc2F)c2ccnc(-c3ccn[nH]3)c2n1", "note": "[Example 77, 4-(2-fluorophenyl)-2-[(3R)-3-methylmorpholin-4-yl]-8-(1H-pyrazol-5-yl)-1,7-naphthyridine]", "IC50": 0.254},
      {"compound": "Cc1ncc(-c2cc(N3CCOC[C@H]3C)nc3c(-c4ccn[nH]4)nccc23)s1", "note": "[Example 78, 2-[(3R)-3-methylmorpholin-4-yl]-4-(2-methyl-1,3-thiazol-5-yl)-8-(1H-pyrazol-5-yl)-1,7-naphthyridine]", "IC50": 0.655},
      {"compound": "C[C@@H]1COCCN1c1cc(-c2ccnn2C2CC2)c2ccnc(-c3ccn[nH]3)c2n1", "note": "[Example 80, 4-(1-cyclopropyl-1H-pyrazol-5-yl)-2-[(3R)-3-methylmorpholin-4-yl]-8-(1H-pyrazol-5-yl)-1,7-naphthyridine]", "IC50": 0.187},
      {"compound": "C[C@@H]1COCCN1c1cc(-c2ccc(N3CCNCC3)cc2F)c2ccnc(-c3ccn[nH]3)c2n1", "note": "[Example 81, 4-[2-fluoro-4-(piperazin-1-yl)phenyl]-2-[(3R)-3-methylmorpholin-4-yl]-8-(1H-pyrazol-5-yl)-1,7-naphthyridine]", "IC50": 0.245},
      {"compound": "C[C@@H]1COCCN1c1cc(N2CCN(S(C)(=O)=O)CC2)c2ccnc(-c3ccn[nH]3)c2n1", "note": "[Example 82, 2-[(3R)-3-methylmorpholin-4-yl]-4-[4-(methylsulfonyl)piperazin-1-yl]-8-(1H-pyrazol-5-yl)-1,7-naphthyridine]", "IC50": 0.529},
      {"compound": "C[C@@H]1COCCN1c1cc(N(C)CC(C)(C)C)c2ccnc(-c3ccn[nH]3)c2n1", "note": "[Example 83, N-(2,2-dimethylpropyl)-N-methyl-2-[(3R)-3-methylmorpholin-4-yl]-8-(1H-pyrazol-5-yl)-1,7-naphthyridin-4-amine]", "IC50": 0.331},
      {"compound": "C[C@@H]1COCCN1c1cc(N2CCC(CO)CC2)c2ccnc(-c3ccn[nH]3)c2n1", "note": "[Example 84, (1-{2-[(3R)-3-methylmorpholin-4-yl]-8-(1H-pyrazol-5-yl)-1,7-naphthyridin-4-yl}piperidin-4-yl)methanol]", "IC50": 0.13},
      {"compound": "C[C@@H]1COCCN1c1cc(N(C)C2CC2)c2ccnc(-c3ccn[nH]3)c2n1", "note": "[Example 85, N-cyclopropyl-N-methyl-2-[(3R)-3-methylmorpholin-4-yl]-8-(1H-pyrazol-5-yl)-1,7-naphthyridin-4-amine]", "IC50": 0.438},
      {"compound": "C[C@@H]1COCCN1c1cc(N(C)c2ccc(F)cc2)c2ccnc(-c3ccn[nH]3)c2n1", "note": "[Example 87, N-(4-fluorophenyl)-N-methyl-2-[(3R)-3-methylmorpholin-4-yl]-8-(1H-pyrazol-5-yl)-1,7-naphthyridin-4-amine]", "IC50": 0.543},
      {"compound": "C[C@@H]1COCCN1c1cc(-c2cccnc2F)c2ccnc(-c3ccn[nH]3)c2n1", "note": "[Example 89, 4-(2-fluoropyridin-3-yl)-2-[(3R)-3-methylmorpholin-4-yl]-8-(1H-pyrazol-5-yl)-1,7-naphthyridine]", "IC50": 0.142}
    ]}
  ]
}
